In patent publication US10556892B2, “Piperazinyl methanone NAAA inhibitors” (priority 2016, dated 2020):
≈ marks a conversion by molar mass, not a printed value. Where two headings read alike, the source gives them in different places.

Experiments:
[1] = Aqueous kinetic solubility in PBS pH 7.4; assay type: physicochemical; settings: pH 7.4, aqueous buffer, kinetic from dmso stock; for solubility at 24 h: PBS
Plasma stability = assay type: in vitro ADME; design: dose or concentration left out as unconfirmed; settings: mouse plasma
h-AC [2] = molecular target: h-AC (Homo sapiens (Human), UniProt Q13510); test: biochemical; settings: read-out: h-AC inh (%) 30 μM
[3] = In vitro metabolic stability, mouse liver microsomes; assay type: in vitro ADME; design: dose or concentration left out as unconfirmed
Experimental: In vitro metabolic stability. Microsomes stability experiments. In vitro incubation with mouse microsomes (NADPH and UDPG system). […] At time zero, cofactors were added. […] The mixture was kept at 37° C. under shaking. Aliquots (50 mL) were taken at various time points and crashed with 0.15 mL of CH3CN spiked with 500 nM warfarin (internal standard). Reference incubation, with microsomes but without cofactors, was kept at 37° C. and sampled at the end of the time course. After vortexing and centrifugation, 3 mL of supernatant were analyzed by LCMS/MS and detected by multiple reaction monitoring (MRM).

[4] = Pharmacokinetics study in mice; assay type: in vivo, mouse; settings: for Kp: brain and plasma
Experimental: Compounds were administered orally or intravenously to C57B6/J mice at 3 mg/kg and 3 mg/kg dose, respectively. Vehicle was PEG400/Tween80/saline solution at 15/15/70% in volume, respectively. Three animals per dose were used. […] Control animals treated with vehicle were also included in the study. Animals were sacrificed at time-points and blood and brain samples were collected. […] Brain samples were homogenized in RIPA buffer (150 mM NaCl, 1.0% Triton X-100, 0.5% sodium deoxycholate, 0.1% sodium dodecyl sulfate, 50 mM Tris, pH 8.0) and were then split in two aliquots kept at −80° C. until analysis. An aliquot was used for compound brain level evaluations, following the same procedure described below for plasma samples. The second aliquot was kept for protein content evaluation by bicinchoninic acid (BCA) assay. Samples (plasma and brain homogenate) were thawed in an ice bath, then centrifuged for 20 min and an aliquot of each (50 μL) was transferred into a 96-deepwell plate and added with 150 μl of the extraction solution, consisting of cold acetonitrile spiked with 200 nM of a structural analog of the analyte (14), closely eluting with the analyte itself, as internal standard. After agitation (3 min) the plate was centrifuged at 3000×g for 20 min at 4° C. 80 μl of supernatant was then transferred in a 96-well plate and added with 80 μL of H2O. Standard compound was spiked in net solvent (PBS pH 7.4 added with 20% CH3CN) to prepare a calibration curve over the 1 nM-10 μM range. 3 quality controls samples were also prepared spiking the compound in blank mouse plasma to final 20, 200 and 2000 nM concentrations. Calibrators and QCs were crashed with the same extraction solution used for the plasma samples. Dosing solutions, previously diluted 100000 fold in the net solvent, were also included in the samples and tested. […] Column and UPLC-MS system were purchased from Waters Inc. Milford, USA. Flow rate was set 0.5 mL/min. Eluents were A=H2O and B═CH3CN, both added with 0.1% formic acid. […] The time/concentration profiles measured with the above mentioned system were then analyzed using PK Solutions Excel application (Summit Research Service, USA) to derive the pharmacokinetic data (Maximum observed concentration (Cmax); maximum time (Tmax); cumulative area under curve (AUC) for experimental time points; distribution volume (Vd); systemic clearance (Cl)).

h-AC [5] = test system: h-AC
[6] = phosphate-buffered saline (PBS) pH 7.4, 25 °C, Table 9, read-out: Aq. Skin
[7] = pH 7.4, read-out: m-LM stab. t1/2
[8] = phosphate-buffered saline (PBS), 25 °C, Table 7
[9] = 25 °C, Table 10, read-out: Aq. Kinetic Solubility
[10] = 3 mg/kg, CD1 mouse, iv 3 mpk, brain
[11] = 3 mg/kg, CD1 mouse, iv 3 mpk, plasma
[12] = C57B6/J, 10 mg/kg, C57 mouse, po 10 mpk, brain
[13] = C57B6/J, 10 mg/kg, C57 mouse, po 10 mpk, plasma
[14] = C57B6/J, 30 mg/kg, C57 mouse, po 30 mpk, brain
[15] = C57B6/J, 30 mg/kg, C57 mouse, po 30 mpk, plasma
[16] = phosphate-buffered saline (PBS), 25 °C, Table 10, read-out: Aq. Kinetic Solubility
[17] = phosphate-buffered saline (PBS), 25 °C, Table 9, read-out: Aq. Skin
[18] = phosphate-buffered saline (PBS), 25 °C, Table 11, read-out: Aq. Kinetic Solubility

CCCS(=O)(=O)c1ccccc1C(=O)N1CCN(c2nc3ccc(F)cc3o2)C[C@@H]1C [Compound 28]
solubility kinetic at 24 h [1, 6]: 45 µM (≈ 20 µg/mL) | half-life (Plasma stability; read-out: m-plasma stab. t1/2): > 2 h | inhibition at 30 µM (h-AC [2]): -11%

CCS(=O)(=O)c1ccccc1C(=O)N1CCN(c2nc3ccc(F)cc3s2)CC1 [Cmpd 1]
half-life [3, 7]: > 1 h | half-life (Plasma stability; read-out: m-plasma stab. t1/2): > 2 h

CCS(=O)(=O)c1ccccc1C(=O)N1CCN(c2nc3ccc(F)cc3s2)C[C@@H]1C [Compound 8]
solubility at 24 h ([1]; phosphate-buffered saline (PBS), 25 °C, Table 5): 165 µM (≈ 73.8 µg/mL) | solubility at 24 h [1, 8]: 139 ± 1 µM (≈ 62.2 µg/mL) | half-life ([3]; pH 7.4, NADPH, read-out: MLM (NADPH) t1/2): > 1 h | half-life (Plasma stability; Table 5, read-out: Plasma t1/2): > 2 h | Kp ([4]; C57B6/J, mouse, 3 mg/kg, mice, oral administration, read-out: brain-to-plasma ratio): 0.25 | Tmax ([4]; C57B6/J, mouse, plasma, oral 3 mg/kg, mice): 0.5 h | AUC ([4]; C57B6/J, mouse, plasma, oral 3 mg/kg, mice, read-out: AUCplasma): 988 ng·h/mL | Cmax ([4]; C57B6/J, mouse, oral 3 mg/kg, mice, plasma): 613 ng/mL

CCS(=O)(=O)c1ccccc1C(=O)N1CCN(c2nc3c(F)cc(F)cc3s2)CC1 [Cmpd 34]
h-AC inh (%) 30 μM (h-AC [5]): 17% | inhibition at 30 µM (h-AC [2]): 4%

CCCCS(=O)(=O)c1ccccc1C(=O)N1CCN(c2nc3ccc(F)cc3s2)CC1 [CH2CH2CH2CH3]
solubility kinetic [1, 9]: < 1 µM

CCS(=O)(=O)c1ccccc1C(=O)N1CCN(c2nc3ccc(F)cc3s2)C[C@@H]1C [Compound 8, (2-ethylsulfonylphenyl)-[(2S)-4-(6-fluoro-1,3-benzothiazol-2-yl)-2-methyl-piperazin-1-yl]methanone]
Cmax [4, 10]: 1610 ng/mL | Tmax [4, 10]: 0.0833 h | half-life [4, 10]: 0.725 h | AUC ([4]; 3 mg/kg, CD1 mouse, iv 3 mpk, brain, read-out: AUC): 867 ng·h/mL | Cmax [4, 11]: 1810 ng/mL | Tmax [4, 11]: 0.0833 h | clearance [4, 11]: 31 mL/min/kg | half-life [4, 11]: 0.893 h | AUC ([4]; 3 mg/kg, CD1 mouse, iv 3 mpk, plasma, read-out: AUC): 1550 ng·h/mL | Vd ([4]; 3 mg/kg, CD1 mouse, iv 3 mpk, plasma, read-out: Vss): 2.4 L/kg | Cmax [4, 12]: 392 ng/mL | Tmax [4, 12]: 0.5 h | half-life [4, 12]: 1.22 h | AUC ([4]; C57B6/J, 10 mg/kg, C57 mouse, po 10 mpk, brain, read-out: AUC): 1340 ng·h/mL | Cmax [4, 13]: 1470 ng/mL | Tmax [4, 13]: 0.5 h | half-life [4, 13]: 1.34 h | AUC ([4]; C57B6/J, 10 mg/kg, C57 mouse, po 10 mpk, plasma, read-out: AUC): 5340 ng·h/mL | Cmax [4, 14]: 2240 ng/mL | Tmax [4, 14]: 0.25 h | half-life [4, 14]: 3.14 h | AUC ([4]; C57B6/J, 30 mg/kg, C57 mouse, po 30 mpk, brain, read-out: AUC): 3230 ng·h/mL | Cmax [4, 15]: 5170 ng/mL | Tmax [4, 15]: 0.25 h | half-life [4, 15]: 1.41 h | AUC ([4]; C57B6/J, 30 mg/kg, C57 mouse, po 30 mpk, plasma, read-out: AUC): 46200 ng·h/mL | Kp ([4]; C57B6/J, 10 mg/kg, C57 mouse, po 10 mpk, read-out: AUCbrain/AUCplasma): 0.251 | Kp ([4]; C57B6/J, 30 mg/kg, C57 mouse, po 30 mpk, read-out: AUCbrain/AUCplasma): 0.07 | Total AUC (AUCplasma + AUCbrain) ([4]; C57 mouse, po 10 mpk): 6683 | % distribution (AUC organ/(AUCplasma + AUCbrain)) ([4]; C57 mouse, po 10 mpk, brain): 20% | % distribution (AUC organ/(AUCplasma + AUCbrain)) ([4]; C57 mouse, po 10 mpk, plasma): 80% | Cl ([4]; C57 mouse, po 10 mpk, plasma): 30.429 mL/min/kg | Vss ([4]; C57 mouse, po 10 mpk, plasma): 3.53 L/kg | Total AUC ([4]; C57 mouse, po 30 mpk): 49447.7 | % distribution ([4]; C57 mouse, po 30 mpk, brain): 7% | % distribution ([4]; C57 mouse, po 30 mpk, plasma): 93% | Cl ([4]; C57 mouse, po 30 mpk, plasma): 10.817 mL/min/kg | Vss ([4]; C57 mouse, po 30 mpk, plasma): 1.32 L/kg | Total AUC ([4]; CD1 mouse, iv 3 mpk): 2421.5 | % distribution ([4]; CD1 mouse, iv 3 mpk, brain): 36% | % distribution ([4]; CD1 mouse, iv 3 mpk, plasma): 64% | Kp ([4]; 3 mg/kg, CD1 mouse, iv 3 mpk, read-out: AUCbrain/AUCplasma): 0.557

CC(C)S(=O)(=O)c1ccccc1C(=O)N1CCN(c2nc3ccc(F)cc3s2)CC1 [i-Pr]
solubility kinetic at 24 h [1, 16]: < 1 µM

O=C(c1ccccc1S(=O)(=O)C1CCC1)N1CCN(c2nc3ccc(F)cc3s2)CC1 [Compound 12]
half-life [3, 7]: > 1 h | half-life (Plasma stability; read-out: m-plasma stab. t1/2): > 2 h | inhibition at 30 µM (h-AC [2]): -3%

CCS(=O)(=O)c1ccccc1C(=O)N1CCN(c2nc3ccc(F)c(F)c3s2)C[C@@H]1C [Compound 36]
solubility kinetic at 24 h [1, 17]: 1 µM (≈ 0.466 µg/mL) | half-life [3, 7]: > 1 h | half-life (Plasma stability; read-out: m-plasma stab. t1/2): > 2 h

O=C(c1ccccc1S(=O)(=O)C1CCCC1)N1CCN(c2nc3ccc(F)cc3s2)CC1 [c-pentyl]
solubility kinetic [1, 9]: < 1 µM

CCS(=O)(=O)c1ccccc1C(=O)N1CCN(c2nc3ccc(F)cc3s2)C(C)C1 (stereo not shown) [Compound 16]
inhibition at 30 µM (h-AC [2]): 25%

CCS(=O)(=O)c1ccccc1C(=O)N1CCN(c2nc3c(F)cccc3s2)CC1 [Compound 8]
half-life [3, 7]: 0.267 h | half-life (Plasma stability; read-out: m-plasma stab. t1/2): > 2 h

CCS(=O)(=O)c1ccccc1C(=O)N1CCN(c2nc3ccc(OC)cc3s2)CC1 [OMe]
solubility kinetic at 24 h [1, 18]: 39 µM (≈ 17.4 µg/mL)

CCS(=O)(=O)c1ccccc1C(=O)N1CCN(c2nc3ccccc3s2)CC1 [H]
solubility kinetic at 24 h [1, 18]: 196 µM (≈ 81.4 µg/mL)

O=C(c1ccccc1S(=O)(=O)C1CCC1)N1CCN(c2nc3ccc(F)cc3s2)CC1 [c-butyl]
solubility kinetic [1, 9]: 5 µM (≈ 2.3 µg/mL)

CCS(=O)(=O)c1ccccc1C(=O)N1CCN(c2nc3ccc(C)cc3s2)CC1 [CH3]
solubility kinetic at 24 h [1, 18]: 181 µM (≈ 77.8 µg/mL)

O=C(c1ccccc1S(=O)(=O)C1CC1)N1CCN(c2nc3ccc(F)cc3s2)CC1 [Compound 22]
half-life [3, 7]: > 1 h | half-life (Plasma stability; read-out: m-plasma stab. t1/2): > 2 h | inhibition at 30 µM (h-AC [2]): -1%

C[C@H]1CN(c2nc3ccc(F)cc3o2)CCN1C(=O)c1ccccc1S(=O)(=O)C1CC1 [Compound 27]
solubility kinetic at 24 h [1, 6]: 124 µM (≈ 55 µg/mL) | half-life (Plasma stability; read-out: m-plasma stab. t1/2): > 2 h | inhibition at 30 µM (h-AC [2]): -12%

CCCS(=O)(=O)c1ccccc1C(=O)N1CCN(c2nc3ccc(F)cc3s2)C[C@@H]1C [Compound 41, [(2S)-4-(6-fluoro-1,3-benzothiazol-2-yl)-2-methyl-piperazin-1-yl]-(2-propylsulfonylphenyl)methanone]
solubility at 24 h [1, 8]: 76 ± 1 µM (≈ 35.1 µg/mL)

C[C@H]1CN(c2nc3ccc(F)cc3s2)CCN1C(=O)c1ccccc1S(=O)(=O)C1CC1 [Compound 42, (2-cyclopropylsulfonylphenyl)-[(2S)-4-(6-fluoro-1,3-benzothiazol-2-yl)-2-methyl-piperazin-1-yl]methanone]
solubility at 24 h [1, 8]: 115 ± 7 µM (≈ 52.9 µg/mL)

O=C(c1ccccc1S(=O)(=O)C1COC1)N1CCN(c2nc3ccc(F)cc3s2)CC1 [oxetan-3-yl]
solubility kinetic at 24 h [1, 16]: 22 µM (≈ 10.2 µg/mL)

CCCS(=O)(=O)c1ccccc1C(=O)N1CCN(c2nc3ccc(F)cc3s2)CC1 [Compound 11]
half-life [3, 7]: > 1 h | half-life (Plasma stability; read-out: m-plasma stab. t1/2): > 2 h | inhibition at 30 µM (h-AC [2]): 2%

CCS(=O)(=O)c1ccccc1C(=O)N1CCN(c2nc3ccc(F)c(F)c3s2)CC1 [Cmpd 35]
solubility kinetic at 24 h [1, 6]: 7 µM (≈ 3.16 µg/mL) | half-life [3, 7]: > 1 h | half-life (Plasma stability; read-out: m-plasma stab. t1/2): > 2 h | h-AC inh (%) 30 μM (h-AC [5]): 12% | inhibition at 30 µM (h-AC [2]): 0%

CCS(=O)(=O)c1ccccc1C(=O)N1CCN(c2nc3ccccc3o2)CC1 [Cmpd 6]
solubility kinetic at 24 h [1, 6]: > 250 µM | half-life [3, 7]: 0.45 h | half-life (Plasma stability; read-out: m-plasma stab. t1/2): > 2 h | h-AC inh (%) 30 μM (h-AC [5]): 64% | inhibition at 30 µM (h-AC [2]): 0%

CCCS(=O)(=O)c1ccccc1C(=O)N1CCN(c2nc3ccc(F)cc3s2)CC1 [CH2CH2CH3]
solubility kinetic [1, 9]: < 1 µM

O=C(c1ccccc1S(=O)(=O)C1CC1)N1CCN(c2nc3ccc(F)cc3s2)CC1 [c-propyl]
solubility kinetic [1, 9]: 10 µM (≈ 4.46 µg/mL)

CCS(=O)(=O)c1ccccc1C(=O)N1CCN(c2nc3cccc(F)c3s2)CC1 [Compound 9]
half-life [3, 7]: 0.267 h | half-life (Plasma stability; read-out: m-plasma stab. t1/2): > 2 h | inhibition at 30 µM (h-AC [2]): -3%

CCS(=O)(=O)c1ccccc1C(=O)N1CCN(c2nc3ccc(F)cc3s2)[C@H](C)C1 [Compound 24]
inhibition at 30 µM (h-AC [2]): 1%

CCS(=O)(=O)c1ccccc1C(=O)N1CCN(c2nc3ccc(F)cc3o2)C[C@@H]1C [Compound 26]
solubility kinetic at 24 h [1, 6]: 6 µM (≈ 2.59 µg/mL) | half-life [3, 7]: > 1 h | half-life (Plasma stability; read-out: m-plasma stab. t1/2): > 2 h | inhibition at 30 µM (h-AC [2]): -12%

O=C(c1ccccc1S(=O)(=O)C1COC1)N1CCN(c2nc3ccc(F)cc3s2)CC1 [Compound 13]
half-life [3, 7]: > 1 h | half-life (Plasma stability; read-out: m-plasma stab. t1/2): > 2 h

O=C(c1ccccc1S(=O)(=O)CCCO)N1CCN(c2nc3ccc(F)cc3s2)CC1 [CH2CH2CH2OH]
solubility kinetic [1, 9]: 49 µM (≈ 22.7 µg/mL)

C[C@H]1CN(c2nc3ccc(F)c(F)c3s2)CCN1C(=O)c1ccccc1S(=O)(=O)C1CC1 [Compound 38]
solubility kinetic at 24 h [1, 17]: 14 µM (≈ 6.69 µg/mL) | half-life (Plasma stability; read-out: m-plasma stab. t1/2): > 2 h

CCS(=O)(=O)c1ccccc1C(=O)N1CCN(c2nc3ccc(Cl)cc3s2)CC1 [Cl]
solubility kinetic at 24 h [1, 18]: 2 µM (≈ 0.9 µg/mL)

CCCS(=O)(=O)c1ccccc1C(=O)N1CCN(c2nc3ccc(F)c(F)c3s2)C[C@@H]1C [Compound 37]
solubility kinetic at 24 h [1, 17]: 8 µM (≈ 3.84 µg/mL) | half-life [3, 7]: > 1 h | half-life (Plasma stability; read-out: m-plasma stab. t1/2): > 2 h | inhibition at 30 µM (h-AC [2]): 9%
